Measurements taken from ChEMBL document CHEMBL4382269, “Discovery of Potent, Efficient, and Selective Inhibitors of Phosphoinositide 3-Kinase δ through a Deconstruction and Regrowth Approach” (J Med Chem, 2018).

Tests used:
[1] = molecular target: Phosphatidylinositol 4,5-bisphosphate 3-kinase catalytic subunit beta isoform (Homo sapiens, UniProt P42338); assay: Inhibition of PI3Kbeta (unknown origin) using PIP2 as substrate preincubated for 15 mins followed by substrate addition measured after 60 mins by HTRF method
Sequence of Phosphatidylinositol 4,5-bisphosphate 3-kinase catalytic subunit beta isoform (P42338 whole entry, canonical isoform): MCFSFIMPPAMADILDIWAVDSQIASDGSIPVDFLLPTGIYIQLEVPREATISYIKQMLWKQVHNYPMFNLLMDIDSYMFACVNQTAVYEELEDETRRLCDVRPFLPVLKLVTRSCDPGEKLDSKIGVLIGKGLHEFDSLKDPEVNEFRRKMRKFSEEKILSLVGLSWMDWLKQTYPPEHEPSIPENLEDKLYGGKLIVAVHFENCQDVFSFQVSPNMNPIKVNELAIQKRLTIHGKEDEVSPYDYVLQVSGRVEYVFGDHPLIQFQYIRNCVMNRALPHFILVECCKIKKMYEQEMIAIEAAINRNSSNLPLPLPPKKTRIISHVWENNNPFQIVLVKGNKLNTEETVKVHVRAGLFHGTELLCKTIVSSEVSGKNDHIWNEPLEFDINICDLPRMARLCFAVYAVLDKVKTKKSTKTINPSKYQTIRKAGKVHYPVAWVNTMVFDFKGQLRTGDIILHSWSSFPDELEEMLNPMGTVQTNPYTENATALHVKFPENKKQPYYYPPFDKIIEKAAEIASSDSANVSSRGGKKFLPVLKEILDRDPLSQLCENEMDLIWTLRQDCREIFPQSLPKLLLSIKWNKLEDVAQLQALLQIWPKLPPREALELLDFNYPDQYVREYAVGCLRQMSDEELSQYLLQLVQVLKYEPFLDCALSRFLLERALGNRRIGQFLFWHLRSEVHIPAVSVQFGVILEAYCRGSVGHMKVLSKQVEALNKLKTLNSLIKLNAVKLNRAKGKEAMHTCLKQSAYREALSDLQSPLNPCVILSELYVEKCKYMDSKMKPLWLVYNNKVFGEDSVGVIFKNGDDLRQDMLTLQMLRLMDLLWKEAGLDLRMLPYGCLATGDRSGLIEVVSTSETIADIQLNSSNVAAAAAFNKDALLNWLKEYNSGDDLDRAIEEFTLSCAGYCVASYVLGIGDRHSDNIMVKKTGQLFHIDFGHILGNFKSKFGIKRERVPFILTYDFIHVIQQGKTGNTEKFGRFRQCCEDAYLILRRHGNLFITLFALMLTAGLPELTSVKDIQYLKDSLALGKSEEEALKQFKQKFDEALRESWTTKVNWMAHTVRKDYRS

[2] = molecular target: Phosphatidylinositol 4,5-bisphosphate 3-kinase catalytic subunit alpha isoform (Homo sapiens, UniProt P42336); assay: Inhibition of PI3Kalpha (unknown origin) using PIP2 as substrate preincubated for 15 mins followed by substrate addition measured after 60 mins by HTRF method
Sequence of Phosphatidylinositol 4,5-bisphosphate 3-kinase catalytic subunit alpha isoform (P42336 whole entry, canonical isoform): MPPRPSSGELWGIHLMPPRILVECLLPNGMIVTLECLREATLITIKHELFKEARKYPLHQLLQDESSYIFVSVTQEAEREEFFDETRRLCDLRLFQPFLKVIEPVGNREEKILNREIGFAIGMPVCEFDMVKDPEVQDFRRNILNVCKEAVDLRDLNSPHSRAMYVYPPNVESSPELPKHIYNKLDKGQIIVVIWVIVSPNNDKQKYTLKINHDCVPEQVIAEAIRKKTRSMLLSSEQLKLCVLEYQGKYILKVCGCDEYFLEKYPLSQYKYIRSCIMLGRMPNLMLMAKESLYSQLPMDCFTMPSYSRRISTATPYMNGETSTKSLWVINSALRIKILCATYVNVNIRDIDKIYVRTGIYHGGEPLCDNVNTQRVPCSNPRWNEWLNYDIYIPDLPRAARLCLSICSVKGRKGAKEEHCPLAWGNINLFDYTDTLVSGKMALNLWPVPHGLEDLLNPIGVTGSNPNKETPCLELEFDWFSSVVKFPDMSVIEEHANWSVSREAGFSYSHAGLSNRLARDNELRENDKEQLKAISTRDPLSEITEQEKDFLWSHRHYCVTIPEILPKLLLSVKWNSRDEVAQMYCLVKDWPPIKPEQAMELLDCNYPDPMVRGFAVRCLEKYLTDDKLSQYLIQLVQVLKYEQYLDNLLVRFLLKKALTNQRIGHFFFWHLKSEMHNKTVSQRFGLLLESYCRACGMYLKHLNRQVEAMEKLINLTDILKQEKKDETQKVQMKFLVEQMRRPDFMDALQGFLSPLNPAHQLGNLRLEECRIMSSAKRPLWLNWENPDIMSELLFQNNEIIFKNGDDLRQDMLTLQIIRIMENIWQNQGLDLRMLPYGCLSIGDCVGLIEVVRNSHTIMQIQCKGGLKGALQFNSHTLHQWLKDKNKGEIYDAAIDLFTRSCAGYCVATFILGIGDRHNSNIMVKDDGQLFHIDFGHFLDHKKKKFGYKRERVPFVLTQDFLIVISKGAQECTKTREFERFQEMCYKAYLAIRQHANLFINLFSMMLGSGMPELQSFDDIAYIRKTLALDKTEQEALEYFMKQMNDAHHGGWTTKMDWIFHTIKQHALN

[3] = molecular target: T1, Phosphatidylinositol 4,5-bisphosphate 3-kinase catalytic subunit delta isoform (Homo sapiens, UniProt O00329); assay: Inhibition of PI3Kdelta (unknown origin) using PIP2 as substrate preincubated for 15 mins followed by substrate addition measured after 60 mins by HTRF method
T1 sequence (O00329 whole entry): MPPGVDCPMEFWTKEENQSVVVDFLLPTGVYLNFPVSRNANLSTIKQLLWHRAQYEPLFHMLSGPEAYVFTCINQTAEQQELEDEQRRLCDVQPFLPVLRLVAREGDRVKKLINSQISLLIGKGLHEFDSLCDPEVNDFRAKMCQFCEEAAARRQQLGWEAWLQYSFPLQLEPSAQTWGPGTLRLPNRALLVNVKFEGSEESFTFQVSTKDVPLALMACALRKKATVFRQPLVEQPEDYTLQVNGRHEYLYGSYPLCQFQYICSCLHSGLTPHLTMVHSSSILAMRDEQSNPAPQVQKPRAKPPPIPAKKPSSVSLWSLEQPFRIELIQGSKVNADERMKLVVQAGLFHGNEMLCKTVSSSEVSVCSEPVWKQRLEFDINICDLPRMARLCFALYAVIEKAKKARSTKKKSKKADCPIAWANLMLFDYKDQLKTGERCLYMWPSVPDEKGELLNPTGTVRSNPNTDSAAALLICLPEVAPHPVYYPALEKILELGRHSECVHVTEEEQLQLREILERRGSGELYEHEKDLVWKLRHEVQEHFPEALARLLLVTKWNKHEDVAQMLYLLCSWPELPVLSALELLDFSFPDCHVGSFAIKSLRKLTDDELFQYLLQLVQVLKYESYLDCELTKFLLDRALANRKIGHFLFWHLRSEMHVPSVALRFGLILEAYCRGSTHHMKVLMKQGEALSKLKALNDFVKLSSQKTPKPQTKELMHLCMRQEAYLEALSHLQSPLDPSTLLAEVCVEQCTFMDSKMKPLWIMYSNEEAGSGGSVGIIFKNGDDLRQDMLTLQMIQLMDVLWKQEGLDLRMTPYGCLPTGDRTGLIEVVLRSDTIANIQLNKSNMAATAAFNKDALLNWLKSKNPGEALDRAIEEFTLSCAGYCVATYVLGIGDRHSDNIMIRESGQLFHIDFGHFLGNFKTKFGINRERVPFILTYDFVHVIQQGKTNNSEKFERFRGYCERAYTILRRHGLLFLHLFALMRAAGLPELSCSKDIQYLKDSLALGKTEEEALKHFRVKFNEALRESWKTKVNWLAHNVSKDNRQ

[4] = molecular target: Phosphatidylinositol 4,5-bisphosphate 3-kinase catalytic subunit gamma isoform (Homo sapiens, UniProt P48736); assay: Inhibition of PI3Kgamma (unknown origin) using PIP2 as substrate preincubated for 15 mins followed by substrate addition measured after 60 mins by HTRF method
Sequence of Phosphatidylinositol 4,5-bisphosphate 3-kinase catalytic subunit gamma isoform (P48736 whole entry, canonical isoform): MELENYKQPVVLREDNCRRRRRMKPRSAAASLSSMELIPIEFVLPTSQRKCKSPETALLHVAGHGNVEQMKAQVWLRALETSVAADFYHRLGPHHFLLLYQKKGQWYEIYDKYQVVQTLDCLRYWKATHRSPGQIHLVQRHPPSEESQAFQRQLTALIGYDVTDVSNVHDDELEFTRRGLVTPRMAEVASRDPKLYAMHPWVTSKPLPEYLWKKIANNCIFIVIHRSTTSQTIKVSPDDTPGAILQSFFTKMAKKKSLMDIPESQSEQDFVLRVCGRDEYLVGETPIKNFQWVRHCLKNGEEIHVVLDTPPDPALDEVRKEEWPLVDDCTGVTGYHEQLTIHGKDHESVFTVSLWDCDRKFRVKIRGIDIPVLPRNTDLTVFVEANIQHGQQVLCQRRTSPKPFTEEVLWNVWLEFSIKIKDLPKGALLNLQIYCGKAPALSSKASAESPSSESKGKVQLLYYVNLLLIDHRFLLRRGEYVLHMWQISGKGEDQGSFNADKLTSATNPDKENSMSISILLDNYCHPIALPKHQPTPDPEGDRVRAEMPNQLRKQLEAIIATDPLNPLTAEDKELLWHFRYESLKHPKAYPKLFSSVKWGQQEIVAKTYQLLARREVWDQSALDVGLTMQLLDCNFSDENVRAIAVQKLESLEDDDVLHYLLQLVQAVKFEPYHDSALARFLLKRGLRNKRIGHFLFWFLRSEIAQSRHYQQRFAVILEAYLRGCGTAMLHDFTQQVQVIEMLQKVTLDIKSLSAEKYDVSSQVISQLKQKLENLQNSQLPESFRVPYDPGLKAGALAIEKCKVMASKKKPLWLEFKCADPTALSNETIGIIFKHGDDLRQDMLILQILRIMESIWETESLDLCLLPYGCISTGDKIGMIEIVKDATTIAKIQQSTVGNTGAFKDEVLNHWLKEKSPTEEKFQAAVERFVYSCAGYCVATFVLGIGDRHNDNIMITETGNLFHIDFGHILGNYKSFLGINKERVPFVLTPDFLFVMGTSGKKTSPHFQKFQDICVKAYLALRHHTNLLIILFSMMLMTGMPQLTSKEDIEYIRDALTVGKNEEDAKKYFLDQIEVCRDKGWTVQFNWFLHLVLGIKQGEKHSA

Row | IC50 [1] [µM] | IC50 [2] [µM] | IC50 [3] [µM] | IC50 [4] [µM] | SMILES
1 | 25.1 | > 158 | 7.94 | > 158 | c1cc(-c2ccc3cn[nH]c3c2)c2cc[nH]c2c1
2 | 2.51 | 2.51 | 0.158 | 0.794 | CS(=O)(=O)Nc1cc(-c2ccc3ccncc3c2)cnc1Cl
3 | > 50.1 | > 50.1 | 79.4 | > 50.1 | c1cc(-c2ccncc2)c2cc[nH]c2c1
4 | > 50.1 | > 50.1 | 158 | 25.1 | c1cc(-c2nnc(CN3CCOCC3)o2)c2cn[nH]c2c1
5 | 15.8 | 31.6 | 1 | 12.6 | O=S(=O)(Nc1cc(-c2ccccc2)cnc1Cl)c1ccccc1
6 | 3.98 | 6.31 | 0.398 | 2.51 | CS(=O)(=O)Nc1cc(-c2ccc3cn[nH]c3c2)cnc1Cl
